Reference: US20050192349A1, “Isolation of the peroxisome proliferation-activated receptor-gamma (PPARgamma) ligand and methods of use thereof” (Beth Israel Deaconess Medical Center, Inc., priority 2002, published 2005)

Legend:
[1] = system: PPARγ ligand production in 5B2 cells; experiment: Effect of COX and LOX inhibitors on PPARγ ligand production in differentiating 5B2 cells (β-gal activity); format: cell-based, murine; conditions: day 2
From the text: To test whether PPARγ ligand production was dependent upon cyclooxygenase (COX) or lipooxygenase (LOX), which would be expected if the ligand were a prostaglandin, the effect of COX and LOX inhibitors on PPARγ ligand production during 3T3-L1 differentiation into adipocytes was examined by measuring the β-gal activity in the stable cell line, 5B2.
5B2 cells were stimulated to differentiation into adipocytes as described above. The media containing the mixture of insulin, DEX and MIX is called d0 media on FIG. 10. In the experimental samples, d0 media contained the indicated COX or LOX inhibitor. The fold induction of β-gal activity of day 2 cells was compared to cells of day 2 stimulated in the absence of hormones (g media).

[2] = cited from earlier work; for LDL levels: human, in vivo
3T3-L1 = conditions: cited from earlier work
PPARγ1 = experiment: Full-length PPARγ1 / p3DR1-luc luciferase reporter in CV-1 cells stimulated with conditioned media; format: cell-based; conditions: CV-1, pCMV-PPARγ and p3DR1-luc, with or without NBD1-VP16; various concentrations
Description: CV-1 cells were transfected with an expression vector encoding full-length PPARγ1 (pCMV-PPARγ) and a reporter plasmid p3DR1-1uc. p3DR1-luc contains a triple copy of PPARγ response element, Direct Repeat 1, linked to the luciferase gene. The cells were transfected with the reporter with or without NBD1-VP16 expression vector. The transfected cells were incubated with or without conditioned media in the absence or presence of various concentrations of PD068235. The cells were washed and lysed as described above for the β-gal assay, except that 50 μl of the lysate were mixed with 100 μl assay buffer and measured for 15 sec. in the Luminometer. Assay buffer consisted of 25 mM glycylglycine, 15 mM MgSO4, 4 mM EGTA, 1 mM DTT, 15 mM KH2PO4, 6 mM ATP and 100 μl of a 0.225 mg/ml luciferin stock solution.

[3] = target: T1, PPARγ-LBD fused to GAL4-DBD (Mus musculus, UniProt P37238); experiment: β-gal activity in 3T3-L1 cell lines 5B2 and 5B3 stably transfected with the feedback monitoring system; format: cell-based, murine; set-up: expressed in transfected cells
T1 sequence (P37238 238-503 limits assumed): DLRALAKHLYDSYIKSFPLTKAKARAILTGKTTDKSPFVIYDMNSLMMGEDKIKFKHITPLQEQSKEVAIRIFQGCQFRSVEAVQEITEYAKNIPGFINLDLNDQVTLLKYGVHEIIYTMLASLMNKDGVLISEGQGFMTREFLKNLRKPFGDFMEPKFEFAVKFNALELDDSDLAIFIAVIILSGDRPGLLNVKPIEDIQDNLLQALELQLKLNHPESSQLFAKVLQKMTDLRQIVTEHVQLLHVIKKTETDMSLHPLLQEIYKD

[4] = target: T1, PPARγ-LBD fused to GAL4-DBD; experiment: PPARγ ligand monitoring system (Gal4-PPARγ-LBD / pUH-gal β-gal reporter) in transfected CV-1 cells; conditions: 3T3-L1 stimulated 2 days with combinations of Ins, Mix and Dex
Description: The effector and reporter constructs were transfected into either CV-1 cells (monkey kidney cells) or 3T3-L1 cells (murine fibroblast cells capable of being differentiated into adipocytes). Cells were grown according to standard protocols for these cells. For example, 3T3-L1 cells were grown and maintained as fibroblasts in DMEM/high glucose, containing 10% calf serum in a 10% CO2 humidified environment at 37° C. The cells were maintained at a subconfluent level so as to not prematurely arrest cell growth and induce differentiation. The cells were typically split 1:5 or 1:3 every 3 to 4 days. Cells were transfected using Lipofectamine™ 2000 Reagent (Life Technologies™, Carlsbad, Calif.) according to the manufacturers instructions. Cells were plated in 24 well dishes for the assay.
The washed cells were lysed with 200 μl lysis buffer (25 mM glycylglycine, 15 mM MgSO4, 4 mM EGTA, 1 mM DTT, 1% Triton) per well. […] The β-gal activity was measured for 10 sec. in a Luminometer (LB9507, EG&G, Bad Wildbad, Germany).
CV-1 cells were transfected as described above with pUH-G4-PPARγ and pUH-gal, with or without nuclear receptor interaction domain NBD1 of SRC-1 fused with VP16 or inactivated VP16. […] The treated, transfected cells were harvested and β-gal activity measured 48 hrs post-transfection.

PPARγ = target: T2, PPARγ (Homo sapiens, UniProt P37231); conditions: cited from earlier work
T2 sequence (P37231 1-505): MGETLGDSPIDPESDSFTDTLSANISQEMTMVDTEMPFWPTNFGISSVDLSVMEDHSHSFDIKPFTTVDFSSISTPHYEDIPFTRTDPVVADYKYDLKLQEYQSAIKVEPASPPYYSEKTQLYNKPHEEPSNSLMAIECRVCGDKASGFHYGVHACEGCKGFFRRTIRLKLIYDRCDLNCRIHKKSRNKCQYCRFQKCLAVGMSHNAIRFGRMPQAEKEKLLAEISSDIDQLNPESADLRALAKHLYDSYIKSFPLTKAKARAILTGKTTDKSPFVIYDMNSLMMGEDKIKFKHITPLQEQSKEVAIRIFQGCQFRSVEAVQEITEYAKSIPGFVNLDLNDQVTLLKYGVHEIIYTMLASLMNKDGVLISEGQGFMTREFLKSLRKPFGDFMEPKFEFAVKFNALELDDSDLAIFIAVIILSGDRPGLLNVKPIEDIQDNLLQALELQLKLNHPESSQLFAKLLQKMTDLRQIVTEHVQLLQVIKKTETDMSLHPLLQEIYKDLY

CC(C)c1ccc2c(c1)c(SC(C)(C)C)c(CC(C)(C)C(=O)O)n2Cc1ccc(Cl)cc1 [MK866]
effect on β-gal activity produced by stimulated 5B2 cells ([1]; 5 μM in d0 media): no significant effect

CN(CCOc1ccc(CC2SC(=O)NC2=O)cc1)c1ccccn1 (stereo not drawn) [rosiglitazone]
LDL levels [2]: associated with a rise in LDL levels

C=CCn1cc([N+](=O)[O-])sc1=NC(=O)C(C)(C)C [PD068235]
3T3-L1 adipocyte differentiation (3T3-L1): prevent 3T3-L1 adipocyte differentiation | inhibition of CM-stimulated PPARγ transcriptional activity (luciferase) (PPARγ1): dose-dependent inhibition of CM-stimulated PPARγ transcriptional activity

O=c1cc(-c2ccccc2)oc2cc(O)c(O)c(O)c12 [Baicalein]
effect on β-gal activity produced by stimulated 5B2 cells ([1]; 5 μM in d0 media): no significant effect

CC(C)Cn1c(=O)n(C)c(=O)c2[nH]cnc21 [Mix, methyl iso-butyl xanthine]
induction of β-gal activity by components of the adipogenic mixture ([3]; 5B2 and 5B3, combinations of Ins, 0.5 mM Mix, Dex, day 2): dependent on the stimulation by Mix | ligand production (β-gal activity) on stimulation with cAMP elevating compounds ([3]; 5B2 cells): induced the ligand production of differentiating pre-adipocytes by increasing the intracellular cAMP | ligand production of 3T3-L1 cells (β-gal activity of CV-1 cells incubated with conditioned media) [4]: dependent on stimulation by Mix

CC(Cc1ccc(O)c(O)c1)C(C)Cc1ccc(O)c(O)c1 (stereo not drawn) [NDGA]
effect on β-gal activity produced by stimulated 5B2 cells ([1]; 10 μM in d0 media): no significant effect

CCCCC/C=C/C=C1/C(=O)C=C[C@@H]1C/C=C\CCCC(=O)O [15-deoxyΔ^12,14PG J2]
Kd (PPARγ; read-out: affinity (dissociation constant) of PPARγ for the ligand): 2 to 50 µM

CCCCC/C=C\C/C=C\CCCCCCCC(=O)O [linoleic acid]
direct binding to PPARγ (PPARγ): bind directly to PPARγ

CCCCCC(O)c1ccc(OCc2ccc3ccccc3n2)cc1 (single isomer, unassigned) [REV 5901-para-isomer]
effect on β-gal activity produced by stimulated 5B2 cells ([1]; 5 μM in d0 media): no significant effect

Cc1c(C)c2c(c(C)c1O)CCC(C)(COc1ccc(CC3SC(=O)NC3=O)cc1)O2 (stereo not drawn) [Troglitazone]
LDL levels [2]: associated with a rise in LDL levels | liver toxicity ([2]; patients): liver toxicity in some patients

COc1ccc2c(c1)c(CC(=O)O)c(C)n2C(=O)c1ccc(Cl)cc1 [Indomethacin]
effect on β-gal activity produced by stimulated 5B2 cells ([1]; 10 μM in d0 media): no significant effect
